Tests used:
[1] = tested on: secretion of other anterior pituitary hormones; assay: Blood concentrations of other anterior pituitary hormones after single dose administration in human (Phase 1 study); assay type: in vivo; conditions: healthy Japanese adult men; single oral dose 1 mg or 10 mg
Experimental: (§1) The examples in this section show the measurement results of blood anterior pituitary hormone concentrations using blood samples from a dose escalation study targeting healthy Japanese adult men, from A Randomized, Double-Blind, Placebo-Controlled, Phase 1 Study (jRCT2051210027) targeting healthy adults, which was conducted to examine the safety and tolerability, pharmacokinetics, and pharmacodynamic action of a single administration of test compound 1.
(§2) In a randomized, double-blind, placebo-controlled, parallel-group comparison, dose-escalation study consisting of 7 cohorts, a single dose of test compound 1 (1, 3, 10, 20, 40, 80 and 160 mg) or placebo was orally administered under fasting conditions. Eight test subjects (6 in the active drug group and 2 in the placebo group) participated in each cohort. The concomitant use of all medications was prohibited from 28 days before hospitalization until discharge.
The test subjects were inspected and examined within 28-2 days and 1 day before administration of test compound 1, and eligibility was confirmed based on the above-mentioned inclusion criteria and exclusion criteria. […] They were fasted for 10 hr before administration and 4 hr after administration until lunch, and took lunch at 13:[…]. The blood was collected 0.5 hr before and 1, 2, 4, 6, 8, and 10 hr after administration of test compound 1.
The concentration of anterior pituitary hormone was measured using blood from the placebo administration group of all cohorts and the test subjects who received administration of 1 mg or 10 mg of test compound 1, at 0.5 hr before administration and 2, 4, 6, 8, and 10 hr after administration. The concentrations of growth hormone, follicle-stimulating hormone, luteinizing hormone, thyroid-stimulating hormone, adrenocorticotropic hormone, and prolactin in blood were measured using the Human Growth Hormone Quantikine ELISA Kit (manufactured by R&D Systems), Follicle-Stimulating Hormone (Human) ELISA Kit (manufactured by Cayman Chemical), Luteinizing Hormome (Human) ELISA Kit (manufactured by Cayman Chemical), U-TSH ELISA (manufactured by BIOCHECK), ACTH ELISA Kit (manufactured by MB Biosciences GmbH), and Human Prolactin Quantikine ELISA Kit (manufactured by R&D Systems) according to the protocol described in the package insert of each kit.
The time course changes in the blood anterior pituitary hormone concentrations after oral administration of placebo (n=14) or test compound 1 at doses of 1 mg and 10 mg (n=6 for each) are shown in FIG. 1-6.

[2] = biological target: T1, human SSTR 5 (Homo sapiens, UniProt P35346); assay: Radiolabeled ligand binding assay, human SSTR subtype selectivity; conditions: SSTR5 versus SSTR1-4, 1 μM
T1 construct: expressed in transfected cells; host or cells: CHO-K1 cells (membrane fraction)
T1 sequence (P35346 whole entry): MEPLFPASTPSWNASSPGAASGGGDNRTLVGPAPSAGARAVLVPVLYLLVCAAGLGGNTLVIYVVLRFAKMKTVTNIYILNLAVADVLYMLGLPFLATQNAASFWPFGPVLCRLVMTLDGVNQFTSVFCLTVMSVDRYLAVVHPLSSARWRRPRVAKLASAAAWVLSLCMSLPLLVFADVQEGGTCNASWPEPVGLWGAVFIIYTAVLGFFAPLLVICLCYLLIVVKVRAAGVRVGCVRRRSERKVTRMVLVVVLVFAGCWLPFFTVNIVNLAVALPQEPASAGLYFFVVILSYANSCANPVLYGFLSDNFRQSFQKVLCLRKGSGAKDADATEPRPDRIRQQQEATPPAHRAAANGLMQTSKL
Experimental: The selectivity of test compounds for human SSTR subtypes was investigated by radiolabeled ligand binding assay. The membrane fraction of CHO-K1 cells expressing human SSTR1-5 was suspended in am assay buffer (25 mM HEPES (pH 7.4), 5 mM MgCl2, 1 mM CaCl2), 10 μg/mL saponin, 0.5% fatty-acid free BSA) and incubated for 1 hr in the presence of 1 μM test compound 1 and [^125I]Tyr^11-somatostatin 14 (Perkin Elmer). Thereafter, the solution containing the membrane fraction was transferred onto a filter plate, and after washing the filter six times with a wash buffer (25 mM HEPES, 5 mM MgCl2, 1 mM CaCl2), 50 μL of Microscint 20 (Packard) was added, and the radioactivity was measured using a TopCount (Perkin Elmer). The results of competitive activity of the test compound against the binding of the human SSTR subtypes with the labeled ligands are shown in Table 2.

[3] = tested on: growth hormone secretion; assay: Growth hormone secretion enhancing action by single dose administration in human (Phase 1 study); assay type: in vivo
Experimental: as §1
as §2, with “discharge. […]” for “discharge.”
The concentration of anterior pituitary hormone was measured using blood from the placebo administration group of all cohorts and the test subjects who received administration of 1 mg or 10 mg of test compound 1, at 0.5 hr before administration and 2, 4, 6, 8, and 10 hr after administration. […]

secretion of adrenocorticotropic hormone (blood concentration) [1]: did not substantially affect | secretion of follicle-stimulating hormone (blood concentration) [1]: did not substantially affect | secretion of luteinizing hormone (blood concentration) [1]: did not substantially affect | secretion of prolactin (blood concentration) [1]: did not substantially affect | secretion of thyroid-stimulating hormone (blood concentration) [1]: did not substantially affect | selectivity of binding among the human SSTR subtypes [2]: selectively binds to SSTR5
Structure (SMILES): CCCc1nc2c(cc1C(=O)O)C(=O)N(C1CCN(Cc3cc(C4CC4)c(-c4ccc(F)cc4)cc3OCC)CC1)CC2 [test compound 1, 6-(1-((2-cyclopropyl-5-ethoxy-4′-fluorobiphenyl-4-yl)methyl)piperidin-4-yl)-5-oxo-2-propyl-5,6,7,8-tetrahydro-1,6-naphthyridine-3-carboxylic acid]
growth hormone secretion (blood growth hormone concentration) ([3]; healthy Japanese adult men, single oral dose 1 mg or 10 mg, fasting, 2-10 hr after administration): clearly enhance growth hormone secretion | increase in blood growth hormone concentration compared with growth hormone replacement therapy ([3]; human, compared with literature values for patients with pediatric growth hormone deficiency): corresponds to the blood growth hormone concentration obtained by growth hormone replacement therapy
